The assay deals with protein kinase. As to the kind of experiment: HTS ATP-utilizing enzyme assay, off-chip mobility-shift format (Caliper HTS 250). The class given is biochemical, human. The following applies: test compound 10 μM; for Kinase: kinase(s) for which the compound exhibits protein kinase inhibitory activity, active = greater than three-sigma from the mean activity of inactive compounds; for protein kinase against which the compound exhibits inhibitory activity (Table 3): active = activity greater than three-sigma from the mean of the predominately inactive population for that enzyme. In a few lines: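 Single-point screen at 10 μM compound in HEPES pH 7.5 buffer with Triton X-100 and BSA, 2.5 h at 20–22 °C. Substrate-to-phosphopeptide ratio measured by off-chip microfluidic mobility shift; EDTA wells as 100% and DMSO wells as 0% control, hits called at three-sigma limits.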

Entries after “also recorded” stand apart in the source; their conditions may differ.

Turning to `CN(C)c1cccc(OCc2nnc(S)n2-c2ccccc2)c1` [5-((3-(dimethylamino)phenoxy)methyl)-4-phenyl-4H-1,2,4-triazole-3-thiol], the Kinase entry was “GSK3-α”. Still for that read-out and setting: with `CCn1c(S)nnc1CNc1cccc(Cl)c1` [5-((3-chlorophenylamino)methyl)-4-ethyl-4H-1,2,4-triazole-3-thiol] the entry was “GSK3-β; also recorded: GSK3-α”; with `Cc1ccc(-n2c(S)nnc2CNc2cccc(Cl)c2)cc1` [5-((3-chlorophenylamino)methyl)-4-p-tolyl-4H-1,2,4-triazole-3-thiol], “GSK3-β; also recorded: GSK3-α”. The same measure, in the same setting: with `Sc1nnc(CNc2cccc(Cl)c2)n1CCc1ccccc1` [5-((3-chlorophenylamino)methyl)-4-phenethyl-4H-1,2,4-triazole-3-thiol] the entry was “GSK3-α; also recorded: GSK3-β; also recorded: AURORA-A”. Still for that read-out and setting: with `Sc1nnc(CNc2cccc(Cl)c2)n1-c1ccccc1` [5-((3-chlorophenylamino)methyl)-4-phenyl-4H-1,2,4-triazole-3-thiol] the entry was “GSK3-β; also recorded: GSK3-α”; with `CCn1c(S)nnc1CSc1nc(C)cc(C)n1` [5-((4,6-dimethylpyrimidin-2-ylthio)methyl)-4-ethyl-4H-1,2,4-triazole-3-thiol], “GSK3-α”.

Consider `Cn1c(S)nnc1COc1ccc(Br)cc1` [5-((4-bromophenoxy)methyl)-4-methyl-4H-1,2,4-triazole-3-thiol], for which the Kinase entry is “CDK2-cyclinE”. Same read-out and setting: with `CCn1c(S)nnc1COc1ccc(Cl)c(C)c1` [5-((4-chloro-3-methylphenoxy)methyl)-4-ethyl-4H-1,2,4-triazole-3-thiol] the entry was “GSK3-α”; with `COCCn1c(S)nnc1COc1ccc(Cl)cc1` [5-((4-chlorophenoxy)methyl)-4-(2-methoxyethyl)-4H-1,2,4-triazole-3-thiol], “GSK3-α”. Still for that read-out and setting: with `CCOc1ccc(NCc2nnc(S)n2-c2ccc(C)cc2)cc1` [5-((4-ethoxyphenylamino)methyl)-4-p-tolyl-4H-1,2,4-triazole-3-thiol] the entry was “AURORA-A”; with `Cc1ccc(-n2c(S)nnc2CNc2ccc(F)cc2)cc1` [5-((4-fluorophenylamino)methyl)-4-p-tolyl-4H-1,2,4-triazole-3-thiol], “AURORA-A; also recorded: GSK3-α; also recorded: GSK3-β”; with `Fc1ccc(NCc2nnc(S)n2-c2ccccc2)cc1` [5-((4-fluorophenylamino)methyl)-4-phenyl-4H-1,2,4-triazole-3-thiol], “AURORA-A”.

Turning to `COc1ccc(OCc2nnc(S)n2-c2ccc(C)cc2)cc1` [5-((4-methoxyphenoxy)methyl)-4-p-tolyl-4H-1,2,4-triazole-3-thiol], the Kinase entry was “AURORA-A; also recorded: GSK3-α”. In the case of `COc1ccc(NCc2nnc(S)n2-c2ccc(C)cc2)cc1` [5-((4-methoxyphenylamino)methyl)-4-p-tolyl-4H-1,2,4-triazole-3-thiol], the Kinase entry is “AURORA-A and PDGFRR-α and MSK2”.

Regarding `O=[N+]([O-])c1ccc(OCc2nnc(S)n2-c2ccccc2)cc1` [5-((4-nitrophenoxy)methyl)-4-phenyl-4H-1,2,4-triazole-3-thiol], the Kinase entry is given as “FLT-3; also recorded: PDGFRR-α”.

Turning to `Cc1cccc(NCc2nnc(S)n2-c2ccccc2)c1` [5-((m-toluidino)methyl)-4-phenyl-4H-1,2,4-triazole-3-thiol], the Kinase entry was “GSK3-α”. Same read-out and setting: with `Sc1nnc(COc2ccc3ccccc3c2)n1-c1ccccc1` [5-((naphthalen-2-yloxy)methyl)-4-phenyl-4H-1,2,4-triazole-3-thiol] the entry was “AURORA-A”. On the same count and under the same terms, with `Cc1ccc(NCc2nnc(S)n2-c2cccc(Cl)c2)cc1` [5-((p-toluidino)methyl)-4-(3-chlorophenyl)-4H-1,2,4-triazole-3-thiol] the entry was “CDK2-cyclinA; also recorded: GSK3-α”. Still for that read-out and setting: with `Cc1ccc(NCc2nnc(S)n2-c2ccc(Cl)cc2)cc1` [5-((p-toluidino)methyl)-4-(4-chlorophenyl)-4H-1,2,4-triazole-3-thiol] the entry was “PAK2 and GSK3-α”; with `COc1ccc(-n2c(S)nnc2CNc2ccc(C)cc2)cc1` [5-((p-toluidino)methyl)-4-(4-methoxyphenyl)-4H-1,2,4-triazole-3-thiol], “AURORA-A; also recorded: PDGFRR-α; also recorded: GSK3-β”. On to `Cn1c(S)nnc1C1CCCCC1` [5-cyclohexyl-4-methyl-4H-1,2,4-triazole-3-thiol], for which the Kinase entry is recorded as “AKT1”. Still for that read-out and setting: with `Cc1nnc(S)n1CC1CCCO1` (centres unmarked) [5-methyl-4-((tetrahydrofuran-2-yl)methyl)-4H-1,2,4-triazole-3-thiol] the entry was “MAPKAPK-2”; with `O=[N+]([O-])c1ccc(Sc2nnc(COc3ccccc3)n2-c2ccccc2)c2cccnc12` [8-nitro-5-(5-(phenoxymethyl)-4-phenyl-4H-1,2,4-triazol-3-ylthio)quinoline], “FLT-3; also recorded: PDGFRR-α”. On to `C(=C\c1ccccc1)/CSc1nnc(-c2ccncc2)n1-c1ccccc1` [(E)-4-(5-(cinnamylthio)-4-phenyl-4H-1,2,4-triazol-3-yl)pyridine], for which the “protein kinase against which the compound exhibits inhibitory activity (Table 3)” value was “GSK3-β and GSK3-α and MSK1”. For `CN(C)CCCSc1nnc(-c2ccc([N+](=O)[O-])cc2)[nH]1` [N,N-dimethyl-3-(5-(4-nitrophenyl)-4H-1,2,4-triazol-3-ylthio)propan-1-amine], the “protein kinase against which the compound exhibits inhibitory activity (Table 3)” value is recorded as “c-TAK1”. For `CN(C)CCCSc1nnc(-c2cccs2)[nH]1` [N,N-dimethyl-3-(5-(thiophen-2-yl)-4H-1,2,4-triazol-3-ylthio)propan-1-amine], the “protein kinase against which the compound exhibits inhibitory activity (Table 3)” value is on record as “c-TAK1; also recorded: AURORA-A; also recorded: GSK3-α”. Regarding `O=C(NCCSc1nnc(-c2cccs2)[nH]1)c1ccccc1` [N-(2-(5-(thiophen-2-yl)-4H-1,2,4-triazol-3-ylthio)ethyl)benzamide], the “protein kinase against which the compound exhibits inhibitory activity (Table 3)” value is on record as “DYRK2; also recorded: GSK3-α; also recorded: GSK3-β”. Still for that read-out and setting: with `O=C(NCCSc1nnc(-c2ccccc2)[nH]1)c1ccccc1` [N-(2-(5-phenyl-4H-1,2,4-triazol-3-ylthio)ethyl)benzamide] the entry was “GSK3-β; also recorded: DYRK2; also recorded: AURORA-A”.

Consider `O=C(CSc1nncn1-c1cccnc1)Nc1ccccc1[N+](=O)[O-]` [N-(2-nitrophenyl)-2-(4-(pyridin-3-yl)-4H-1,2,4-triazol-3-ylthio)acetamide], for which the Kinase result is recorded as “FYN”. Take `Cc1nnc(SCC(=O)Nc2cccc(Cl)c2)n1C` [N-(3-chlorophenyl)-2-(4,5-dimethyl-4H-1,2,4-triazol-3-ylthio)acetamide]: the Kinase entry is recorded as “DAPK1”. Same read-out and setting: with `Cn1c(S)nnc1-c1ccc(NC(=O)c2ccccc2)cc1` [N-(4-(5-mercapto-4-methyl-4H-1,2,4-triazol-3-yl)phenyl)benzamide] the entry was “GSK3-α; also recorded: CHEK2”; with `O=C(CSc1nnc(Cc2ccccc2)n1Cc1ccccc1)Nc1ccccc1-c1ccccc1` [N-(biphenyl-2-yl)-2-(4,5-dibenzyl-4H-1,2,4-triazol-3-ylthio)acetamide], “CDK2-cyclinE”; with `C=CCNC(=O)CSc1nnc(-c2ccccc2O)n1-c1ccc(C)cc1` [N-allyl-2-(5-(2-hydroxyphenyl)-4-p-tolyl-4H-1,2,4-triazol-3-ylthio)acetamide], “AURORA-A”.

In the case of `Cc1cccc(-c2nnc(SCC(=O)NCc3ccccc3)n2C)c1` [N-benzyl-2-(4-methyl-5-m-tolyl-4H-1,2,4-triazol-3-ylthio)acetamide], the Kinase entry is “MAPKAPK-2 and FYN”. As for `COc1ccc(-c2nnc(SCC(=O)OCc3ccccc3)n2-c2ccc(OC)cc2)cc1` [benzyl 2-(4,5-bis(4-methoxyphenyl)-4H-1,2,4-triazol-3-ylthio)acetate], the Kinase entry is listed as “AKT1”. As to `CC(C)Cn1c(SCC(=O)OCc2ccccc2)nnc1-c1ccccc1O` [benzyl 2-(5-(2-hydroxyphenyl)-4-isobutyl-4H-1,2,4-triazol-3-ylthio)acetate], the Kinase entry was “CDK2-cyclinE”. Regarding `O=C(CSc1nnc(CC2CCCCC2)n1-c1ccccc1)OCc1ccccc1` [benzyl 2-(5-(cyclohexylmethyl)-4-phenyl-4H-1,2,4-triazol-3-ylthio)acetate], the Kinase result was “PDK1 and HCK”.

As for `COc1ccccc1-n1c(SCCCC(=O)OCc2ccccc2)nnc1-c1ccccc1` [benzyl 4-(4-(2-methoxyphenyl)-5-phenyl-4H-1,2,4-triazol-3-ylthio)butanoate], the “protein kinase against which the compound exhibits inhibitory activity (Table 3)” value is “AURORA-A”.

Consider `Cn1c(SCC(=O)OC2CCCCC2)nnc1-c1ccc([N+](=O)[O-])cc1` [cyclohexyl 2-(4-methyl-5-(4-nitrophenyl)-4H-1,2,4-triazol-3-ylthio)acetate], for which the Kinase result is “PDGFRR-α and FYN and FLT-3”.

With `CCOC(=O)CSc1nnc(-c2ccccc2OC)n1C` [ethyl 2-(5-(2-methoxyphenyl)-4-methyl-4H-1,2,4-triazol-3-ylthio)acetate], the Kinase result is “AURORA-A and FYN”. On the same count and under the same terms, with `CCOC(=O)CSc1nnc(-c2ccc(OC)c(OC)c2)n1-c1ccccc1` [ethyl 2-(5-(3,4-dimethoxyphenyl)-4-phenyl-4H-1,2,4-triazol-3-ylthio)acetate] the entry was “MAPKAPK-2; also recorded: CDK2-cyclinE”; with `CCOC(=O)CSc1nnc(-c2ccco2)n1-c1ccc(C)cc1` [ethyl 2-(5-(furan-2-yl)-4-p-tolyl-4H-1,2,4-triazol-3-ylthio)acetate], “PAK2”.

`CCOC(=O)CSc1nnc(-c2ccncc2)[nH]1` [ethyl 2-(5-(pyridin-4-yl)-4H-1,2,4-triazol-3-ylthio)acetate]: the Kinase entry is “CDK2-cyclinA and AURORA-A and CDK5”.

With `CCOC(=O)CCSc1nnc(-c2cccc(C(F)(F)F)c2)[nH]1` [ethyl 3-(5-(3-(trifluoromethyl)phenyl)-4H-1,2,4-triazol-3-ylthio)propanoate], the “protein kinase against which the compound exhibits inhibitory activity (Table 3)” value is on record as “AURORA-A; also recorded: FLT-3; also recorded: GSK3-β”.
